Results taken from patent publication US9399626B2, “2-thiopyrimidinones” (Pfizer Inc., priority 2011, dated 2016).
Where a name gives a salt, the structure may show the parent alone.

Each compound was assayed against T1, MPO (purified from human polynuclear leukocytes) (Homo sapiens, UniProt P05164) (assay: MPO Amplex Red Activity Assay). Details: Table 1, 2 μM H2O2, pH 7.4.
T1 construct: purified from human polynuclear leukocytes; purchased Calbiochem/EMD Biosciences; host or cells: human polynuclear leukocytes (natural source)
T1 sequence (P05164 279-745 limits assumed): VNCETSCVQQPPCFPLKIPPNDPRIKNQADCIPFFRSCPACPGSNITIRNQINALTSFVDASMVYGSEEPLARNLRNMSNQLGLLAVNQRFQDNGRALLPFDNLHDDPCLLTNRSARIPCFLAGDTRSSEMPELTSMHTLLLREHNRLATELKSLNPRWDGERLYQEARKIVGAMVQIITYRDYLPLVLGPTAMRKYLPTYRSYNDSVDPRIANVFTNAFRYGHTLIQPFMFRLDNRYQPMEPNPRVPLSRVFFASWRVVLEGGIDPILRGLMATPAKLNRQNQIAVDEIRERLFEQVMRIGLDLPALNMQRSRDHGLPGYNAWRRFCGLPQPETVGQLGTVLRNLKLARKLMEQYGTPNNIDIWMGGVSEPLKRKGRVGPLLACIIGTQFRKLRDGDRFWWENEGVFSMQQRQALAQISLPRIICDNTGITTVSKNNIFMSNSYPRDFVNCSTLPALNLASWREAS
T1 sequence (P05164 165-273 limits assumed): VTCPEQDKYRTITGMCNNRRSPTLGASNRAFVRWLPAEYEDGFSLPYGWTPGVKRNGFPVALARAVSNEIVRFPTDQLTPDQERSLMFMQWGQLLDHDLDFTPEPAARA
Assay type: biochemical
Summary of the method: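 Potency is given as kinact/KI: kobs values from 600 s progress curves, minus the uninhibited rate, are fit against inhibitor concentration. Reactions use 2 μM H2O2, 30 μM Amplex Red, pH 7.4 phosphate buffer with NaCl, DTPA and 2% DMSO, started with […] human MPO. Readout is resorufin fluorescence, catalase background subtracted.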

Row | Structure (SMILES) | MPO kinact/Ki
1 | COc1cc(-c2cc(=O)[nH]c(=S)n2CCCN)c(OC)cc1C [Example 106, 1-(3-aminopropyl)-6-(2,5-dimethoxy-4-methylphenyl)-2-thioxo-2,3-dihydropyrimidin-4(1H)-one hydrochloride] | 10500 1/s per M
2 | COCCn1c(-c2cc3ccccc3[nH]2)cc(=O)[nH]c1=S [Example 302, 6-(1H-indol-2-yl)-1-(2-methoxyethyl) 2-thioxo-2,3-dihydropyrimidin-4(1H)-one] | 3630 1/s per M
3 | COc1ccccc1-c1cc(=O)[nH]c(=S)n1CCO [Example 156, 1-(2-hydroxyethyl)-6-(2-methoxyphenyl)-2-thioxo-2,3-dihydropyrimidin-4(1H)-one] | 16800 1/s per M
4 | COc1cc(OC)c(-c2cc(=O)[nH]c(=S)n2CCN)cc1OC [Example 198, 1-(2-aminoethyl)-2-thioxo-6-(2,4,5-trimethoxyphenyl)-2,3-dihydropyrimidin-4(1H)-one hydrochloride] | 8460 1/s per M
5 | COCCn1c(-c2cc3ccccc3s2)cc(=O)[nH]c1=S [Example 323, 6-(1-benzothien-2-yl)-1-(2-methoxyethyl)-2-thioxo-2,3-dihydropyrimidin-4(1H)-one] | 10200 1/s per M
6 | COc1ccc(-c2cc(=O)[nH]c(=S)n2CC(=O)OC(C)(C)C)c(OC)c1 [Example 137, tert-butyl[6-(2,4-dimethoxyphenyl)-4-oxo-2-thioxo-3,4-dihydropyrimidin-1(2H)-yl]acetate] | 701 1/s per M
7 | COc1ncc(C)cc1-c1cc(=O)[nH]c(=S)n1CC(N)=O [Example 44, 2-[6-(2-methoxy-5-methylpyridin-3-yl)-4-oxo-2-thioxo-3,4-dihydropyrimidin-1(2H)-yl]acetamide] | 3440 1/s per M
8 | COc1ccc(-c2cc(=O)[nH]c(=S)n2CCNC(N)=O)c(OC)c1 [Example 223, 1-{2-[6-(2,4-dimethoxyphenyl)-4-oxo-2-thioxo-3,4-dihydropyrimidin-1(2H)-yl]ethyl}urea] | 3000 1/s per M
9 | COCCn1c(-c2cc(OC)ccc2OC)cc(=O)[nH]c1=S [Example 9, 6-(2,5-dimethoxyphenyl)-1-(2-methoxyethyl)-2-thioxo-2,3-dihydropyrimidin-4(1H)-one] | 15000 1/s per M
10 | COc1ccc(-c2cc(=O)[nH]c(=S)n2CC(=O)NCCN)c(OC)c1 [Example 241, N-(2-aminoethyl)-2-(6-(2,4-dimethoxyphenyl)-4-oxo-2-thioxo-3,4-dihydropyrimidin-1(2H)-yl)acetamide hydrochloride] | 7060 1/s per M
11 | COc1cc(F)ccc1-c1cc(=O)[nH]c(=S)n1CCCN [Example 57, 1-(3-aminopropyl)-6-(4-fluoro-2-methoxyphenyl)-2-thioxo-2,3-dihydropyrimidin-4(1H)-one hydrochloride] | 13100 1/s per M
12 | COCCn1c(-c2cccc(OC)c2OC)cc(=O)[nH]c1=S [Example 329, 6-(2,3-dimethoxyphenyl)-1-(2-methoxyethyl)-2-thioxo-2,3-dihydropyrimidin-4(1H)-one] | 963 1/s per M
13 | COc1ccc(-c2cc(=O)[nH]c(=S)n2CCCSC)c(OC)c1 [Example 227, 6-(2,4-dimethoxyphenyl)-1-[3-(methylthio)propyl]-2-thioxo-2,3-dihydropyrimidin-4(1H)-one] | 745 1/s per M
14 | COCCn1c(-c2cccc3ncccc23)cc(=O)[nH]c1=S [Example 321, 1-(2-methoxyethyl)-6-quinolin-5-yl-2-thioxo-2,3-dihydropyrimidin-4(1H)-one] | 2480 1/s per M
15 | COc1ccc(C)cc1-c1cc(=O)[nH]c(=S)n1CCCN [Example 43, 1-(3-aminopropyl)-6-(2-methoxy-5-methylphenyl)-2-thioxo-2,3-dihydropyrimidin-4(1H)-one hydrochloride] | 34600 1/s per M
16 | COc1ccc(Cl)cc1-c1cc(=O)[nH]c(=S)n1CCN=C(N)N [Example 128, 2-{2-[6-(5-chloro-2-methoxyphenyl)-4-oxo-2-thioxo-3,4-dihydropyrimidin-1(2H)-yl]ethyl} guanidine hydrochloride] | 7680 1/s per M
17 | COCCn1c(-c2cccc3ncsc23)cc(=O)[nH]c1=S [Example 78, 6-(1,3-benzothiazol-7-yl)-1-(2-methoxyethyl)-2-thioxo-2,3-dihydropyrimidin-4(1H)-one] | 9730 1/s per M
18 | COc1ccc(-c2cc(=O)[nH]c(=S)n2Cc2ncccn2)c(OC)c1 [Example 234, 6-(2,4-dimethoxyphenyl)-1-(pyrimidin-2-ylmethyl)-2-thioxo-2,3-dihydropyrimidin-4(1H)-one] | 3060 1/s per M
19 | COCCn1c(-c2nc3ccccc3s2)cc(=O)[nH]c1=S [Example 75, 6-(1,3-benzothiazol-2-yl)-1-(2-methoxyethyl)-2-thioxo-2,3-dihydropyrimidin-4(1H)-one] | 2040 1/s per M
20 | COc1cc(-c2cc(=O)[nH]c(=S)n2CC(N)=O)c(OC)cc1C [Example 147, 2-[6-(2,5-dimethoxy-4-methylphenyl)-4-oxo-2-thioxo-3,4-dihydropyrimidin-1(2H)-yl]acetamide] | 6500 1/s per M
21 | COCCn1c(-c2cccc(OC(F)(F)F)c2)cc(=O)[nH]c1=S [Example 340] | 1450 1/s per M
22 | COc1cc(OC)cc(-c2cc(=O)[nH]c(=S)n2CC(N)=O)c1 [Example 86, 2-[6-(3,5-dimethoxyphenyl)-4-oxo-2-thioxo-3,4-dihydropyrimidin-1(2H)-yl]acetamide] | 3960 1/s per M
23 | COCCn1c(-c2ccc3c(c2)CCO3)cc(=O)[nH]c1=S [Example 308, 6-(2,3-dihydro-1-benzofuran-5-yl)-1-(2-methoxyethyl)-2-thioxo-2,3-dihydropyrimidin-4(1H)-one] | 5340 1/s per M
24 | COCCn1c(-c2cccc3ccsc23)cc(=O)[nH]c1=S [Example 73, 6-(1-benzothien-7-yl)-1-(2-methoxyethyl)-2-thioxo-2,3-dihydropyrimidin-4(1H)-one] | 9870 1/s per M
25 | COc1ccc(-c2cc(=O)[nH]c(=S)n2Cc2ccn[nH]2)c(OC)c1 [Example 207, 6-(2,4-dimethoxyphenyl)-1-(1H-pyrazol-5-ylmethyl)-2-thioxo-2,3-dihydropyrimidin-4(1H)-one] | 2400 1/s per M
26 | COc1ccc(C)cc1-c1cc(=O)[nH]c(=S)n1CCN [Example 159, 1-(2-aminoethyl)-6-(2-methoxy-5-methylphenyl)-2-thioxo-2,3-dihydropyrimidin-4(1H)-one hydrochloride] | 11400 1/s per M
27 | COc1ncc(C)cc1-c1cc(=O)[nH]c(=S)n1CCCN [Example 45, 1-(3-aminopropyl)-6-(2-methoxy-5-methylpyridin-3-yl)-2-thioxo-2,3-dihydropyrimidin-4(1H)-one trifluoroacetate] | 4000 1/s per M
28 | COc1cc(OC)c(-c2cc(=O)[nH]c(=S)n2CCO)cc1F [Example 184, 6-(5-fluoro-2,4-dimethoxyphenyl)-1-(2-hydroxyethyl)-2-thioxo-2,3-dihydropyrimidin-4(1H)-one] | 5970 1/s per M
29 | COc1ccc(Cl)cc1-c1cc(=O)[nH]c(=S)n1C[C@@H](O)CO [Example 116, 6-(5-chloro-2-methoxyphenyl)-1-[(2R)-2,3-dihydroxypropyl]-2-thioxo-2,3-dihydropyrimidin-4(1H)-one] | 9920 1/s per M
30 | COCCn1c(-c2ccc(OC)c3nc(C)ccc23)cc(=O)[nH]c1=S [Example 345, 1-(2-methoxyethyl)-6-(8-methoxy-2-methylquinolin-5-yl)-2-thioxo-2,3-dihydropyrimidin-4(1H)-one] | 946 1/s per M

Same assay, conditions: Table 1A, 2 μM H2O2, pH 7.4

Row | Structure (SMILES) | MPO kinact/Ki
31 | COc1cccc(-c2cc(=O)[nH]c(=S)n2CC(N)=O)c1OC [Example 416, 2-[6-(2,3-dimethoxyphenyl)-4-oxo-2-thioxo-3,4-dihydropyrimidin-1(2H)-yl]acetamide] | 4480 1/s per M
32 | COc1cc(OCCO)ccc1-c1cc(=O)[nH]c(=S)n1CC(N)=O [Example 387, 2-{6-[4-(2-hydroxyethoxy)-2-methoxyphenyl]-4-oxo-2-thioxo-3,4-dihydropyrimidin-1(2H)-yl}acetamide] | 4720 1/s per M
33 | COc1ccc(OCCO)c(-c2cc(=O)[nH]c(=S)n2CC(N)=O)c1 [Example 380, 2-{6-[2-(2-hydroxyethoxy)-5-methoxyphenyl]-4-oxo-2-thioxo-3,4-dihydropyrimidin-1(2H)-yl}acetamide] | 4470 1/s per M
34 | NCCNC(=O)Cn1c(-c2cc(F)ccc2OCCO)cc(=O)[nH]c1=S [Example 405, N-(2-aminoethyl)-2-{6-[5-fluoro-2-(2-hydroxyethoxy)phenyl]-4-oxo-2-thioxo-3,4-dihydropyrimidin-1(2H)-yl}acetamide] | 5970 1/s per M
35 | COc1cccc(-c2cc(=O)[nH]c(=S)n2CC(N)=O)c1 [Example 384, 2-[6-(3-methoxyphenyl)-4-oxo-2-thioxo-3,4-dihydropyrimidin-1(2H)-yl]acetamide] | 2930 1/s per M
36 | COc1ccc(-c2cc(=O)[nH]c(=S)n2CC(=O)N2CC[C@H](N)C2)c(OC)c1 [Example 398, 1-{2-[(3S)-3-aminopyrrolidin-1-yl]-2-oxoethyl}-6-(2,4-dimethoxyphenyl)-2-thioxo-2,3-dihydropyrimidin-4(1H)-one] | 4780 1/s per M
37 | COc1ccc(-c2cc(=O)[nH]c(=S)n2CC(=O)N[C@H]2CC[C@@H]2N)c(OC)c1 [Example 439, N-[(1S,2S)-2-aminocyclobutyl]-2-[6-(2,4-dimethoxyphenyl)-4-oxo-2-thioxo-3,4-dihydropyrimidin-1(2H)-yl]acetamide] | 9200 1/s per M
38 | COc1ccc(-c2cc(=O)[nH]c(=S)n2CCO)cc1OC [Example 355, 6-(3,4-dimethoxyphenyl)-1-(2-hydroxyethyl)-2-thioxo-2,3-dihydropyrimidin-4(1H)-one] | 1540 1/s per M
